Assays:
Escherichia coli = assay: Bacterial growth inhibition assay, E. coli; type: cell-based
S. aureus Newman = assay: Antibiotic susceptibility after N34 pretreatment; type: cell-based, Staphylococcus aureus; conditions: 20 μM N34 pretreatment, then antibiotics; Table S5
Method: The strong antibiofilm activity of the boronic acid compounds argues for their possible use in combination therapy with antibiotics to treat staphylococcal infections. Therefore, we wanted to test if the N34 treatment impacts the susceptibility profile of the S. aureus to antibiotics. To test this, we pretreated bacteria with a sub-inhibitory concentration of N34 (20 μM) for 2 hours at 37°C followed by treatment with selected antibiotics.
(§1) For bacterial growth inhibition assay, wild-type S. aureus and transposon mutants (fphB::Tn, fphE::Tn and fphH::Tn) were grown with compounds at final concentrations ranging from 1–100 μM and compared to growth in media with an equivalent percentage of DMSO. Each condition was plated as technical duplicates. The plate was incubated at 37°C with shaking every 15 minutes followed by measurement of OD600 for 14 hr. All growth curves were repeated at least twice and analyzed in GraphPad Prism 10.0 software. For bacterial resistance analysis, overnight culture of S. aureus Newman was diluted to an OD600 of 0.01 in MHB. […] The cultures were incubated overnight at 37°C, 5% CO2 before their optical density was read. The EC50 of the antibiotics against the bacteria in the presence or absence of N34 were determined by fitting the normalized data into a four-parameter logistic model in GraphPad Prism 10.0 software.

Streptococcus pyogenes = assay: Bacterial growth inhibition assay, S. pyogenes; type: cell-based
Method: (§2) Bacteria were streaked from glycerol stocks onto agar plates and grown overnight at 37°C. A single colony was inoculated in either Tryptic Soy Broth (TSB; Sigma-Aldrich, St. Louis, MO; used for most species) or Bacto Brain Heart Infusion (BHI; Becton, Dickinson, and Company, Franklin Lakes, NJ; used for L. monocytogenes and S. pyogenes) and grown at 37°C shaking until mid-exponential phase (OD600 = 0.5), then diluted 1:10 in cation-adjusted Mueller Hinton Broth (MHB2, Millipore Sigma, Bedford, MA; used for most species) or BHI (for L. monocytogenes and S. pyogenes). 15 μl of this dilution was added to 135 μl of MHB2 or BHI in a flat-bottom clear 96-well plate for a starting inoculum of ~ 5 × 10^5 CFU/ml.
as §1, with “Each condition was plated as technical duplicates. The plate was incubated at 37°C with shaking every 15 minutes followed by measurement of OD600 for 14 hr.” left out, “software.” for “software. For bacterial resistance analysis, overnight culture of S. aureus Newman was diluted to an OD600 of 0.01 in MHB.”

[1] = Cytotoxicity assay (CellTiter-Blue); type: cell-based; conditions: human; HEK293 cells, 48hr of incubation
[2] = system: Fph enzymes in live S. aureus cells (USA300); assay: Competition of FP-alkyne labeling in live S. aureus cells; type: cell-based, Staphylococcus aureus
Method: (§3) One colony of each of S. aureus wild-type and transposon mutants fphB::Tn, fphE::Tn and fphH::Tn picked from growth on a Tryptic soya agar plate were inoculated in 5 mL of Tryptic soya broth (TSB). The overnight bacterial cultures were spun down at 5,000 g for 10 min and pellet was collected. The pellets were washed twice in 1X PBS buffer and resuspended in the same buffer. Cells were first preincubated with the indicated concentrations of inhibitors for 2hr at 37°C. The cells were washed twice with 1X PBS buffer. The resuspended pellets were incubated with Fluorophosphonate-alkyne (FP-alkyne) for 30 min at 37°C. Cells were washed again twice with 1X PBS buffer and resuspended in with 1X PBS and 0.1% Triton–X and lysed by beat beating at 4°C. Next, lysed cells (20 μL) were mixed with 2.16 μL of freshly prepared click mix (0.5 μL of 50 mM CuSO4 in H2O, 1.16 μL of 100 mM BTTAA in DMSO, and 0.5 μL of N3-Cy5 in DMSO) and 1.16 μL of 300 mM sodium ascorbate solution in H2O and incubated at 37 °C for 30 min. Next step, 20 μL of 4X SDS loading buffer was added in each sample and boiled at 100 °C for 10 min. The processed samples were allowed to cool and analyzed by SDS-PAGE (12%) running at 120 V in an electrophoresis chamber. Cy5 fluorescence was imaged using the Cy5 channel on a Typhoon 9410 Imager (Amersham Biosciences).

[3] = system: S. aureus biofilm formation; assay: Crystal violet biofilm inhibition assay; type: cell-based, Staphylococcus aureus; conditions: for effect on biofilm formation (in words): wild type S. aureus, 1–100 μM
Method: Overnight cultures of S. aureus (wild-type, transposon mutants and complemented) strains (Table S3) grown in TSB, were subcultured on fresh TSB and grown to OD600 of 0.5. Biofilms were cultured in 96 well plates by transferring 1 μL of the culture to 200 μL of TSB plus 1% glucose with or without the inhibitors and incubated for 16 hours at 37°C without agitation. The inhibitor concentrations ranged from 1, 5, 10, 50 and 100 μM final concentration. Equal volume of DMSO was added as control. The wells were washed to remove the planktonic cells and the plates air-dried before staining with 200μL of 0.1% w/v crystal violet for 10 minutes at room temperature. The wells were washed to remove excess dye and blotted to dry. Each well was filled with 200μL of DMSO for 10 minutes at room temperature to dissolve the dye. The absorbance was measured at 590 nm using Spark multimode microplate reader (TECAN). The data represents n = 3 independent experiments and are expressed as a percentage of the uninhibited wild-type bacteria. All the data are normalized such that 100% represent untreated WT S. aureus. P values were determined using ordinary one-way ANOVA multiple comparisons GraphPad Prism 10.0 software. *P < 0.05, **P < 0.01, ***P < 0.001 and ****P < 0.0001.

S. epidermidis = assay: Bacterial growth inhibition assay, S. epidermidis; type: cell-based, Staphylococcus epidermidis
Method: as §2
as §1, with “Each condition was plated as technical duplicates. The plate was incubated at 37°C with shaking every 15 minutes followed by measurement of OD600 for 14 hr.” left out, “software.” for “software. For bacterial resistance analysis, overnight culture of S. aureus Newman was diluted to an OD600 of 0.01 in MHB.”

rFphH = biological target: T1, rFphH (Staphylococcus aureus, UniProt A0A0H2XJL0); assay: FP-Cy5 active site labeling of recombinant protein, rFphH; type: binding; conditions: 500 nM rFphH
T1 construct: otherwise full-length FphE (Uniprot ID Q2FDS6) and FphH (A0A0H2XJL0) proteins; His6 (3C-cleavable, pETNKI-his-3C-LIC vector) (N); made in house; E. coli is inferred from the pET28a-type vector, IPTG induction and LB/kanamycin
T1 sequence (A0A0H2XJL0 1-246): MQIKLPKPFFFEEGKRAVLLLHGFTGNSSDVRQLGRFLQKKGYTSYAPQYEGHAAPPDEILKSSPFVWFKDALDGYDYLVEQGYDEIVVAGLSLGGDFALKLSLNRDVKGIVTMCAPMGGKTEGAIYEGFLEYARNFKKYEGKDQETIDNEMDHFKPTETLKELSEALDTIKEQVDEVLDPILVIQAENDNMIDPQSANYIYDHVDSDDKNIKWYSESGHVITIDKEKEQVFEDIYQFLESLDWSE
Method: (§4) For activity-based protein labeling experiments, 500 nM of rFphB, rFphE and rFphH in 1X PBS and 0.1% Triton–X were preincubated with different concentrations of inhibitors or DMSO for 2hr at room temperature, followed by adding 300 nM of fluorophosphonate (FP) alkyne and incubated for 30 min at room temperature. Next, 20 μL of the reaction volume were mixed with 2.16 μL of freshly prepared click mix (0.5 μL of 50 mM CuSO4 in H2O, 1.16 μL of 100 mM BTTAA in DMSO, and 0.5 μL of N3-Cy5 in DMSO) and 1.16 μL of 300 mM sodium ascorbate solution in H2O. Samples were incubated at 37°C for 30 min, boiled in SDS loading buffer and analyzed by SDS–PAGE. Cy5 fluorescence was imaged using the Cy5 channel on a Typhoon 9410 Imager (Amersham Biosciences).

Pseudomonas aeruginosa = assay: Bacterial growth inhibition assay, P. aeruginosa; type: cell-based
Method: as §2
as §1, with “Each condition was plated as technical duplicates. The plate was incubated at 37°C with shaking every 15 minutes followed by measurement of OD600 for 14 hr.” left out, “software.” for “software. For bacterial resistance analysis, overnight culture of S. aureus Newman was diluted to an OD600 of 0.01 in MHB.”

[4] = system: S. aureus wild type and fph transposon mutants; assay: Bacterial growth inhibition assay, S. aureus; type: cell-based, Staphylococcus aureus; conditions: 1–100 μM
Method: as §2
For bacterial growth inhibition assay, wild-type S. aureus and transposon mutants (fphB::Tn, fphE::Tn and fphH::Tn) were grown with compounds at final concentrations ranging from 1–100 μM and compared to growth in media with an equivalent percentage of DMSO. Each condition was plated as technical duplicates. The plate was incubated at 37°C with shaking every 15 minutes followed by measurement of OD600 for 14 hr. All growth curves were repeated at least twice and analyzed in GraphPad Prism 10.0 software. For bacterial resistance analysis, overnight culture of S. aureus Newman was diluted to an OD600 of 0.01 in MHB. This was followed by pretreatment with 20 μM N34 or equivalent DMSO volume as control. The pretreatment was allowed to proceed for 3 hr before initiating treatment with different concentrations of the test antibiotics (Table S5). The cultures were incubated overnight at 37°C, 5% CO2 before their optical density was read. The EC50 of the antibiotics against the bacteria in the presence or absence of N34 were determined by fitting the normalized data into a four-parameter logistic model in GraphPad Prism 10.0 software.

rFphB [5] = biological target: T2, rFphB (Staphylococcus aureus, UniProt A0A0H2XJG5); assay: FP-Cy5 active site labeling competition of recombinant protein, rFphB; type: binding
T2 construct: made in house
T2 sequence (A0A0H2XJG5 1-322): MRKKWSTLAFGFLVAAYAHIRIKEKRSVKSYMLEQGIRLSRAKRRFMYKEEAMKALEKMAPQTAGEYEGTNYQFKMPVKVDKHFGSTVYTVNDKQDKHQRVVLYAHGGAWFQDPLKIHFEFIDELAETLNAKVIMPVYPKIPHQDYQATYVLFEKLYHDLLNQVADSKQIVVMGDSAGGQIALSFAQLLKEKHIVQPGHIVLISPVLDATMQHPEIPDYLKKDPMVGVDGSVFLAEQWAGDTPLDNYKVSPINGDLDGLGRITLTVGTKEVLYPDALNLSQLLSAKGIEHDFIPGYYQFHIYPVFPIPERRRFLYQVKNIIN
Method: as §4

HEK293 cells = assay: Cytotoxicity assay (CellTiter-Blue); type: cell-based; conditions: mammalian cells
[6] = biological target: T3, Fph enzymes in live S. aureus cells (USA300) (Staphylococcus aureus, UniProt A0A0H2XJG5); assay: Competition of FP-alkyne labeling in live S. aureus cells; type: cell-based; conditions: live cells, increasing concentrations, 120 min
T3 construct: endogenous in cells; host or cells: live S. aureus USA300 (LAC) wild-type cells
T3 sequence (A0A0H2XJG5 1-322): T2 sequence (A0A0H2XJG5 1-322)
Method: as §3

rFphB [7] = biological target: T2, rFphB; assay: Intact protein LC-MS of rFphB with inhibitor; type: binding; conditions: rFphB:X20 1:10
Method: Next, 10 μL of the labeled sample was injected and analyzed by LC-MS. For LC-MS conditions, 95% solvent A (0.1% formic acid in LC-MS grade water), 5% solvent B (0.1% formic acid in LC-MS grade acetonitrile) at 0.6 mL/min was used for 2 min to remove excess of salts into waste before a linear 6-minute gradient from 80% solvent A (20% solvent B) to 20% solvent A (80% solvent B), followed by a one-minute 95% solvent A (5% solvent B). Protein labeling efficiency was quantified by UV. The acquired mass of protein was deconvoluted using the deconvolution software in Agilent Bioanalysis Software package.

| Structure (SMILES) | growth defect (in words) (Escherichia coli) | impact of N34 pretreatment on antibiotic susceptibility (in words) (S. aureus Newman) | growth inhibition (in words) (Streptococcus pyogenes) | CC50 at 48 h [1] [µM] | competition of FP labeling in live cells (in words) ([2]; 100 μM compound, live S. aureus cells) | concentration giving partial inhibition of FphE and other lower molecular weight Fph proteins ([2]; live cells, doses 5–100 μM, 120 min preincubation) [µM] | effect on biofilm formation in transposon mutants (in words) ([3]; fphH or fphE transposon mutant) | effect on biofilm formation (in words) [3] | growth inhibition (in words) (S. epidermidis) | competition of FP-Cy5 labeling of rFphH (in words) (rFphH) | growth defect (in words) (Pseudomonas aeruginosa) | effect on S. aureus growth (in words) [4] | competition of FP-Cy5 labeling of rFphB (in words) (rFphB [5]) | off-target effects in mammalian cells (in words) (HEK293 cells) | competition of FP-alkyne labeling of native FphB (in words) [6] | reduction of biofilms ([3]; WT cells, highest concentrations) [%] | reduction of biofilms ([3]; fphB mutant) [%] | adduct formation on rFphB (in words) (rFphB [7]) |
| --- | --- | --- | --- | --- | --- | --- | --- | --- | --- | --- | --- | --- | --- | --- | --- | --- | --- | --- |
| OB(O)c1ccc(C(F)(F)F)s1 [N34] | no significant growth defect | does not impact resistance or susceptibility profiles of the antibiotics | no growth inhibition | > 200 | blocked FP labeling of FphH | ≥ 50 | not further increased by addition of even 100 μM concentrations of N34 | most pronounced effects | inhibited only by the FphH inhibitor N34 | dose-dependently blocked labeling of rFphH | no significant growth defect | both the fphE and fphH mutants grew slower than wild type |  |  |  |  |  |  |
| COc1cc2c(cc1S(=O)(=O)F)C(=O)NCCC2 [X20] |  |  |  |  |  |  |  | significant inhibition of biofilm formation |  |  |  | minimal effect on planktonic growth | dose-dependently blocked labeling of rFphB | did not show any off-target effects in mammalian cells | retains both its potency and selectivity towards the natively expressed FphB | 60 | 40 | a single X20 adduct formed |

From article PMC11661381, “Covalent-fragment screening identifies selective inhibitors of multiple Staphylococcus aureus serine hydrolases important for growth and biofilm formation” (Research Square, 2024)
